pEC50, pIC50: −log10 of the molar value. Converted amounts (≈) assume the structure as drawn.
Columns and labels:
Hexokinase-4 [1] = biological target: T1, Hexokinase-4 (Homo sapiens, UniProt P35557); test: Activation of recombinant full length human liver glucokinase expressed in Escherichia coli incubated for 10 mins by plate reader analysis
T1 sequence (P35557 whole entry): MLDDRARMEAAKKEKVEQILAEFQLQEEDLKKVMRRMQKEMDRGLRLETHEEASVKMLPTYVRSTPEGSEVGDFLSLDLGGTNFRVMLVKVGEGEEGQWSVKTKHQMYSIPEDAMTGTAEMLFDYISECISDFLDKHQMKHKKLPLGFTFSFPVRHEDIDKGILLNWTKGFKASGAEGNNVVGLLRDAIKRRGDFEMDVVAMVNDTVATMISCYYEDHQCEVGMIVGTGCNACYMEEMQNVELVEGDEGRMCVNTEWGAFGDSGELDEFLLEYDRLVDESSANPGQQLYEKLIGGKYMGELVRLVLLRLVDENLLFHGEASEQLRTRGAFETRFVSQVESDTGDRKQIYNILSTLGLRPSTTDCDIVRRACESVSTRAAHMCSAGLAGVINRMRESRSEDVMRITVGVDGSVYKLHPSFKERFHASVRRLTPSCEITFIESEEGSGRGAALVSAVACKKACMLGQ

[2] = Aqueous solubility of the compound at pH 6.5 using amorphous form of sample; assay type: physicochemical; conditions: aqueous solution
[3] = Microsomal stability in human liver microsomes assessed as parent compound remaining at 0.5 uM measured after 10 mins in presence of NADPH; assay type: ADME, Microsome; conditions: read-out: Stability
[4] = biological target: Voltage-gated inwardly rectifying potassium channel KCNH2 (Homo sapiens, UniProt Q12809); test: Inhibition of hERG by patch clamp method; assay type: toxicity
Chain of Voltage-gated inwardly rectifying potassium channel KCNH2 (Q12809 whole entry): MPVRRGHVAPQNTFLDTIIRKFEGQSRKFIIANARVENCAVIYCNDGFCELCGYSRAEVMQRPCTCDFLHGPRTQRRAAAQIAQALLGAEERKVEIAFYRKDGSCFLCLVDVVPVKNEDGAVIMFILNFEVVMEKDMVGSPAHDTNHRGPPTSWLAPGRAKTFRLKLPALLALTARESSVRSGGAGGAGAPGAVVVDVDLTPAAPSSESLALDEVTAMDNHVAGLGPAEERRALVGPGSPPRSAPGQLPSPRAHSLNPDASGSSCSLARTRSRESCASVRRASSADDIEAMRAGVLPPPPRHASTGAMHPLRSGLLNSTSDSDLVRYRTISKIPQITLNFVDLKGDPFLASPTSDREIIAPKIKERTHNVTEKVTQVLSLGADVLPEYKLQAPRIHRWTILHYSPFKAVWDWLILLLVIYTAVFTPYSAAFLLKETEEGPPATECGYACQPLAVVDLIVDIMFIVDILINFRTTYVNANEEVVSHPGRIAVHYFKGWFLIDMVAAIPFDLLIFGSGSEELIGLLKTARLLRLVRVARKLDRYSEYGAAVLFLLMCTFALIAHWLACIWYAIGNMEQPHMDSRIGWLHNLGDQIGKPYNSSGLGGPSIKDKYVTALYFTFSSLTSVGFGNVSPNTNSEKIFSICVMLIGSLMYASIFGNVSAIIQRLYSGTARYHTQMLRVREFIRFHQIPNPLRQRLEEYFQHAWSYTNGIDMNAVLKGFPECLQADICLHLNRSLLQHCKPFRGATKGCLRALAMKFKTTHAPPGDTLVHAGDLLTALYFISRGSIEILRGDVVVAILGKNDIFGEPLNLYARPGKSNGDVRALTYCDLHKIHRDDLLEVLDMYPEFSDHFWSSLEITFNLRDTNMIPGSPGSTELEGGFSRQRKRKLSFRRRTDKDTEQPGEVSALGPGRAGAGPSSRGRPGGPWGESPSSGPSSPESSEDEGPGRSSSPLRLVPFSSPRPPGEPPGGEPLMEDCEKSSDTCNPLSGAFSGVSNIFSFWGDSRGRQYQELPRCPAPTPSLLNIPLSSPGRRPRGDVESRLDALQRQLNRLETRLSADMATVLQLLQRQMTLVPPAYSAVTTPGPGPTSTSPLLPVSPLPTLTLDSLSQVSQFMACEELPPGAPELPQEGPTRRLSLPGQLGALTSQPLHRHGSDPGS

[5] = Permeability of compound at pH 7.4 by PAMPA assay; assay type: ADME; conditions: read-out: permeability
Hexokinase-4 [6] = biological target: T1, Hexokinase-4; test: Activation of recombinant human full length liver glucokinase expressed in Escherichia coli incubated for 10 mins in presence of 5 mM glucose by plate reader analysis
Hexokinase-4 [7] = biological target: T1, Hexokinase-4; test: Displacement of fluorescent labeled derivative from recombinant human hepatic glucokinase incubated for 30 mins in presence of 12 mM glucose by fluorescent polarization assay
Hexokinase-4 [8] = biological target: T1, Hexokinase-4; test: Activation of recombinant human full length liver glucokinase expressed in Escherichia coli incubated for 10 mins in presence of 2 mM glucose by plate reader analysis
Hexokinase-4 [9] = biological target: T2, Hexokinase-4 (Mus musculus, UniProt P52792); test: Activation of recombinant mouse full length liver glucokinase expressed in Escherichia coli incubated for 10 mins in presence of 12 mM glucose by plate reader analysis
T2 sequence (P52792 whole entry): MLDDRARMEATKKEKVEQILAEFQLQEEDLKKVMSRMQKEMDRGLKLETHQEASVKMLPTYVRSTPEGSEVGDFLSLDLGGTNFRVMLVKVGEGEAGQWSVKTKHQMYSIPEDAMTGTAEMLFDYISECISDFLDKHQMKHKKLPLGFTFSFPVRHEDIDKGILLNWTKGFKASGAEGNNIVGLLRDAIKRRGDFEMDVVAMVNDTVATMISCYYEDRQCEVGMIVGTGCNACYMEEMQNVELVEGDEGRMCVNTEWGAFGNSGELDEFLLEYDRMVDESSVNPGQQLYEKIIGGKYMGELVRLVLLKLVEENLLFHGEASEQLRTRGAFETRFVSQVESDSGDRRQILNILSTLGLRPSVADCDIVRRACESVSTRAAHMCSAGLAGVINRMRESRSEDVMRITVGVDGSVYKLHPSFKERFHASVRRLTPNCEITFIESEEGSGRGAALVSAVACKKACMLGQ

hERG (KCNH2) = hERG (KCNH2) (Homo sapiens, UniProt Q12809); test: Inhibition of hERG at 10 uM by patch clamp method relative to control; assay type: toxicity
Chain of hERG (KCNH2) (Q12809 whole entry): as the sequence (Q12809 whole entry) above

Row | SMILES | pEC50 (Hexokinase-4 [1]) | solubility [2] [µg/mL] | remaining at 10 min, 0.5 µM [3] [%] | Papp [5] [×10⁻⁶ cm/s] | pIC50 [4] | pEC50 (Hexokinase-4 [6]) | pIC50 (Hexokinase-4 [7]) | pEC50 (Hexokinase-4 [8]) | pEC50 (Hexokinase-4 [9]) | inhibition at 10 µM (hERG (KCNH2)) [%]
1 | CCOP(=O)(Cn1ccc(NC(=O)c2cc(Oc3ccc(S(C)(=O)=O)cc3)cc(O[C@@H](C)COC)c2)n1)OCC | 7.12 | 240 (≈ 403 µM) | 11 |  | < 4.10 |  |  |  |  | 
2 | CCO[P@](C)(=O)Cn1ccc(NC(=O)c2cc(Oc3ccc(S(C)(=O)=O)cc3)cc(O[C@@H](C)COC)c2)n1 | 6.77 | 547 (≈ 967 µM) | 81 |  | < 4.10 |  |  |  |  | 
3 | CCOP(=O)(Cn1ccc(NC(=O)c2cc(Oc3ccc(C(=O)N4CCC4)nn3)cc(OC(C)C)c2)n1)OCC | 5.91 | 409 (≈ 714 µM) | 99 |  | < 4.10 |  |  |  |  | 
4 | CCOP(=O)(Cn1ccc(NC(=O)c2cc(Oc3cnc(C(N)=O)cn3)cc(OC(C)C)c2)n1)OCC | 6.18 |  | 100 |  | < 4.10 |  |  |  |  | 
5 | CCOP(=O)(Cn1ccc(NC(=O)c2cc(Oc3cnc(C(=O)N(C)C)cn3)cc(OC(C)C)c2)n1)OCC | 6.83 | 980 (≈ 1750 µM) | 99 |  | < 4.10 |  |  |  |  | 
6 | COC[C@H](C)Oc1cc(Oc2ccc(S(C)(=O)=O)cc2)cc(C(=O)Nc2ccn(CP(C)(C)=O)n2)c1 | 6.17 | 96 (≈ 179 µM) | 96 |  | < 4.10 |  |  |  |  | 
7 | CCOP(=O)(Cn1ccc(NC(=O)c2cc(Oc3cnc(C(=O)NC)cn3)cc(OC(C)C)c2)n1)OCC | 6.71 |  | 98 |  | < 4.10 |  |  |  |  | 
8 | CCOP(=O)(Cn1ccc(NC(=O)c2cc(Oc3ccc(S(C)(=O)=O)cc3)cc(O[C@@H](C)CF)c2)n1)OCC | 7.06 | 1 (≈ 1.71 µM) | 78 | 56 | < 4.10 |  |  |  |  | 
9 | CCOP(=O)(Cn1ccc(NC(=O)c2cc(Oc3cnc(S(C)(=O)=O)nc3)cc(OC(C)C)c2)n1)OCC | 6.63 | 471 (≈ 830 µM) | 100 | 31.4 | < 4.10 |  |  |  |  | 
10 | CCOP(=O)(Cn1ccc(NC(=O)c2cc(Oc3ccc(S(C)(=O)=O)nn3)cc(OC(C)C)c2)n1)OCC | 6.28 | 3830 (≈ 6750 µM) | 100 | 25.5 | < 4.10 |  |  |  |  | 
11 | CCOP(=O)(Cc1cnc(NC(=O)c2cc(Oc3ccc(S(C)(=O)=O)cc3)cc(O[C@@H](C)COC)c2)cn1)OCC | 6.79 | 161 (≈ 265 µM) | 54 |  | < 4.10 |  |  |  |  | 
12 | CCOP(=O)(Cn1ccc(NC(=O)c2cc(Oc3ccc(C(=O)N4CCC4)cn3)cc(OC(C)C)c2)n1)OCC | 6.73 | 298 (≈ 521 µM) | 99 |  | < 4.10 |  |  |  |  | 
13 | CCOP(=O)(Cn1ccc(NC(=O)c2cc(Oc3cnc(S(C)(=O)=O)cn3)cc(OC(C)C)c2)n1)OCC | 6.80 |  | 91 | 44.5 | < 4.10 |  |  |  |  | 
14 | CCOP(=O)(Cn1ccc(NC(=O)c2cc(Oc3ccc(S(C)(=O)=O)cc3)cc(O[C@@H](C)CO)c2)n1)OCC | 7.10 | 7 (≈ 12 µM) | 90 | 0.7 | < 4.10 |  |  |  |  | 
15 | CCOP(=O)(Cc1csc(NC(=O)c2cc(Oc3ccc(S(C)(=O)=O)cc3)cc(O[C@@H](C)COC)c2)n1)OCC | 7.42 | 16 (≈ 26.1 µM) | 4 |  | 4.30 | 7.19 | 6.91 | 6.73 | 7.38 | 60
16 | CCOP(=O)(Cn1ccc(NC(=O)c2cc(Oc3ccc(S(C)(=O)=O)cc3)cc(O[C@@H](CC)CO)c2)n1)OCC | 7.01 |  | 82 | 8.4 | < 4.10 |  |  |  |  | 

The next lines start with results.

Row | pEC50 (Hexokinase-4 [1]) | solubility [2] [µg/mL] | remaining at 10 min, 0.5 µM [3] [%] | Papp [5] [×10⁻⁶ cm/s] | SMILES | pIC50 [4] | pEC50 (Hexokinase-4 [6]) | pIC50 (Hexokinase-4 [7]) | pEC50 (Hexokinase-4 [8]) | pEC50 (Hexokinase-4 [9]) | inhibition at 10 µM (hERG (KCNH2)) [%]
17 | 7.17 | 2 (≈ 3.3 µM) | 46 | 51.6 | CCOP(=O)(Cn1ccc(NC(=O)c2cc(Oc3ccc(S(=O)(=O)N4CCC4)cc3)cc(OC(C)C)c2)n1)OCC | 4.48 |  |  |  |  | 
18 | 7.60 | 39 (≈ 68.2 µM) | 66 |  | CCOP(=O)(Cn1ccc(NC(=O)c2cc(Oc3ccc(C(=O)N4CCC4)nc3)cc(OC(C)C)c2)n1)OCC | < 4.10 |  |  |  |  | 
19 | 7.55 |  | 94 | 53.4 | CCOP(=O)(Cn1ccc(NC(=O)c2cc(Oc3ccc(S(=O)(=O)CC)cc3)cc(OC(C)C)c2)n1)OCC |  |  |  |  |  | 
20 | 7.12 | 10 (≈ 16.6 µM) | 93 | 38.2 | CCOP(=O)(Cn1ccc(NC(=O)c2cc(Oc3ccc(S(C)(=O)=O)cc3)cc(OC(CF)CF)c2)n1)OCC | 4.36 |  |  |  |  | 
21 | 7.31 | 5 (≈ 8.38 µM) | 33 |  | CCOP(=O)(Cn1ncc(NC(=O)c2cc(Oc3ccc(S(C)(=O)=O)cc3)cc(O[C@@H](C)COC)c2)n1)OCC |  |  |  |  |  | 
22 | 7.62 |  | 96 | 47.1 | CCOP(=O)(Cn1ccc(NC(=O)c2cc(Oc3ccc(S(C)(=O)=O)nc3)cc(OC(C)C)c2)n1)OCC | < 4.10 |  |  |  |  | 
23 | 7.49 | 3 (≈ 5.05 µM) | 77 | 53.6 | CCOP(=O)(Cn1ccc(NC(=O)c2cc(Oc3ccc(S(=O)(=O)C(C)C)cc3)cc(OC(C)C)c2)n1)OCC | 4.52 |  |  |  |  | 
24 | 7.32 | 1 (≈ 1.77 µM) | 88 | 50.1 | CCOP(=O)(Cn1ccc(NC(=O)c2cc(Oc3ccc(S(C)(=O)=O)cc3)cc(OC(C)C)c2)n1)OCC | < 4.10 |  |  |  |  | 
25 | 7.21 | 229 (≈ 400 µM) | 99 |  | CCOP(=O)(Cn1ccc(NC(=O)c2cc(Oc3cnc(C(=O)N4CCC4)nc3)cc(OC(C)C)c2)n1)OCC | < 4.10 |  |  |  |  | 

Source: ChEMBL document CHEMBL5046279, “Discovery of a Partial Glucokinase Activator Clinical Candidate: Diethyl ((3-(3-((5-(Azetidine-1-carbonyl)pyrazin-2-yl)oxy)-5-isopropoxybenzamido)-1H-pyrazol-1-yl)methyl)phosphonate (BMS-820132)” (J Med Chem, 2022)
